Numbers after ± are expanded uncertainties.
Test: xn = mol fraction of the nth substance listed
Conditions: 101 kPa, Liquid; for viscosity: Capillary tube (Ostwald / Ubbelohde) method; for speed of sound: Sing-around technique in a fixed-path interferometer; for mass density: Vibrating tube method

CCCCCCCCCCO [decan-1-ol] + C1CCOC1
viscosity (298.15 K, x2 = 0.0503): 9.806 ± 0.37 mPa·s
viscosity (298.15 K, x2 = 0.1046): 8.47 ± 0.36 mPa·s
viscosity (298.15 K, x2 = 0.157): 7.201 ± 0.36 mPa·s
viscosity (298.15 K, x2 = 0.2022): 6.345 ± 0.36 mPa·s
viscosity (298.15 K, x2 = 0.253): 5.428 ± 0.36 mPa·s
viscosity (298.15 K, x2 = 0.3057): 4.609 ± 0.36 mPa·s
viscosity (298.15 K, x2 = 0.4094): 3.343 ± 0.36 mPa·s
viscosity (298.15 K, x2 = 0.5018): 2.503 ± 0.36 mPa·s
viscosity (298.15 K, x2 = 0.6038): 1.842 ± 0.36 mPa·s
viscosity (298.15 K, x2 = 0.7003): 1.366 ± 0.36 mPa·s
viscosity (298.15 K, x2 = 0.8004): 0.98 ± 0.36 mPa·s
viscosity (298.15 K, x2 = 0.9043): 0.691 mPa·s
speed of sound (298.15 K, x2 = 0.0503): 1372.7 ± 1.5 m/s
speed of sound (298.15 K, x2 = 0.1046): 1368.8 ± 1.5 m/s
speed of sound (298.15 K, x2 = 0.157): 1365.1 ± 1.5 m/s
speed of sound (298.15 K, x2 = 0.2022): 1361.8 ± 1.5 m/s
speed of sound (298.15 K, x2 = 0.253): 1357.5 ± 1.5 m/s
speed of sound (298.15 K, x2 = 0.3057): 1352.6 ± 1.5 m/s
speed of sound (298.15 K, x2 = 0.4094): 1343.7 ± 1.5 m/s
speed of sound (298.15 K, x2 = 0.5018): 1334 ± 1.5 m/s
speed of sound (298.15 K, x2 = 0.6038): 1323.4 ± 1.5 m/s
speed of sound (298.15 K, x2 = 0.7003): 1312.4 ± 1.5 m/s
speed of sound (298.15 K, x2 = 0.8004): 1299.3 ± 1.5 m/s
speed of sound (298.15 K, x2 = 0.9043): 1286.4 ± 1.5 m/s
mass density (298.15 K, x2 = 0.0503): 827.6 ± 0.24 kg/m3
mass density (298.15 K, x2 = 0.1046): 828.949 ± 0.24 kg/m3
mass density (298.15 K, x2 = 0.157): 830.327 ± 0.24 kg/m3
mass density (298.15 K, x2 = 0.2022): 831.593 ± 0.24 kg/m3
mass density (298.15 K, x2 = 0.253): 833.093 ± 0.24 kg/m3
mass density (298.15 K, x2 = 0.3057): 834.766 ± 0.24 kg/m3
mass density (298.15 K, x2 = 0.4094): 838.49 ± 0.24 kg/m3
mass density (298.15 K, x2 = 0.5018): 842.347 ± 0.24 kg/m3
mass density (298.15 K, x2 = 0.6038): 847.354 ± 0.24 kg/m3
mass density (298.15 K, x2 = 0.7003): 853.111 ± 0.24 kg/m3
mass density (298.15 K, x2 = 0.8004): 860.53 ± 0.24 kg/m3
mass density (298.15 K, x2 = 0.9043): 870.265 ± 0.23 kg/m3
viscosity (303.15 K, x2 = 0.0503): 8.074 ± 0.36 mPa·s
viscosity (303.15 K, x2 = 0.1046): 7.037 ± 0.36 mPa·s
viscosity (303.15 K, x2 = 0.157): 6.17 ± 0.36 mPa·s
viscosity (303.15 K, x2 = 0.2022): 5.262 ± 0.36 mPa·s
viscosity (303.15 K, x2 = 0.253): 4.527 ± 0.36 mPa·s
viscosity (303.15 K, x2 = 0.3057): 3.958 ± 0.36 mPa·s
viscosity (303.15 K, x2 = 0.4094): 2.908 ± 0.36 mPa·s
viscosity (303.15 K, x2 = 0.5018): 2.095 ± 0.36 mPa·s
viscosity (303.15 K, x2 = 0.6038): 1.635 ± 0.36 mPa·s
viscosity (303.15 K, x2 = 0.7003): 1.224 ± 0.36 mPa·s
viscosity (303.15 K, x2 = 0.8004): 0.907 ± 0.36 mPa·s
viscosity (303.15 K, x2 = 0.9043): 0.649 mPa·s
speed of sound (303.15 K, x2 = 0.0503): 1355.9 ± 1.5 m/s
speed of sound (303.15 K, x2 = 0.1046): 1351.7 ± 1.5 m/s
speed of sound (303.15 K, x2 = 0.157): 1348.3 ± 1.5 m/s
speed of sound (303.15 K, x2 = 0.2022): 1344.4 ± 1.5 m/s
speed of sound (303.15 K, x2 = 0.253): 1339.9 ± 1.5 m/s
speed of sound (303.15 K, x2 = 0.3057): 1335 ± 1.5 m/s
speed of sound (303.15 K, x2 = 0.4094): 1325.7 ± 1.5 m/s
speed of sound (303.15 K, x2 = 0.5018): 1315.6 ± 1.5 m/s
speed of sound (303.15 K, x2 = 0.6038): 1304.3 ± 1.5 m/s
speed of sound (303.15 K, x2 = 0.7003): 1292.6 ± 1.5 m/s
speed of sound (303.15 K, x2 = 0.8004): 1278.9 ± 1.5 m/s
speed of sound (303.15 K, x2 = 0.9043): 1264.9 ± 1.5 m/s
mass density (303.15 K, x2 = 0.0503): 824.137 ± 0.24 kg/m3
mass density (303.15 K, x2 = 0.1046): 825.438 ± 0.24 kg/m3
mass density (303.15 K, x2 = 0.157): 826.766 ± 0.24 kg/m3
mass density (303.15 K, x2 = 0.2022): 827.998 ± 0.24 kg/m3
mass density (303.15 K, x2 = 0.253): 829.453 ± 0.24 kg/m3
mass density (303.15 K, x2 = 0.3057): 831.076 ± 0.24 kg/m3
mass density (303.15 K, x2 = 0.4094): 834.656 ± 0.24 kg/m3
mass density (303.15 K, x2 = 0.5018): 838.365 ± 0.24 kg/m3
mass density (303.15 K, x2 = 0.6038): 843.203 ± 0.24 kg/m3
mass density (303.15 K, x2 = 0.7003): 848.748 ± 0.24 kg/m3
mass density (303.15 K, x2 = 0.8004): 855.869 ± 0.24 kg/m3
mass density (303.15 K, x2 = 0.9043): 865.235 ± 0.23 kg/m3
viscosity (308.15 K, x2 = 0.0503): 6.379 ± 0.36 mPa·s
viscosity (308.15 K, x2 = 0.1046): 5.67 ± 0.36 mPa·s
viscosity (308.15 K, x2 = 0.157): 4.969 ± 0.36 mPa·s
viscosity (308.15 K, x2 = 0.2022): 4.236 ± 0.36 mPa·s
viscosity (308.15 K, x2 = 0.253): 3.663 ± 0.36 mPa·s
viscosity (308.15 K, x2 = 0.3057): 3.249 ± 0.36 mPa·s
viscosity (308.15 K, x2 = 0.4094): 2.385 ± 0.36 mPa·s
viscosity (308.15 K, x2 = 0.5018): 1.738 ± 0.36 mPa·s
viscosity (308.15 K, x2 = 0.6038): 1.408 ± 0.36 mPa·s
viscosity (308.15 K, x2 = 0.7003): 1.04 ± 0.36 mPa·s
viscosity (308.15 K, x2 = 0.8004): 0.807 ± 0.36 mPa·s
viscosity (308.15 K, x2 = 0.9043): 0.58 mPa·s
speed of sound (308.15 K, x2 = 0.0503): 1339.1 ± 1.5 m/s
speed of sound (308.15 K, x2 = 0.1046): 1335 ± 1.5 m/s
speed of sound (308.15 K, x2 = 0.157): 1331.1 ± 1.5 m/s
speed of sound (308.15 K, x2 = 0.2022): 1327 ± 1.5 m/s
speed of sound (308.15 K, x2 = 0.253): 1322.2 ± 1.5 m/s
speed of sound (308.15 K, x2 = 0.3057): 1317.2 ± 1.5 m/s
speed of sound (308.15 K, x2 = 0.4094): 1307.1 ± 1.5 m/s
speed of sound (308.15 K, x2 = 0.5018): 1296.8 ± 1.5 m/s
speed of sound (308.15 K, x2 = 0.6038): 1284.4 ± 1.5 m/s
speed of sound (308.15 K, x2 = 0.7003): 1271.8 ± 1.5 m/s
speed of sound (308.15 K, x2 = 0.8004): 1257.6 ± 1.5 m/s
speed of sound (308.15 K, x2 = 0.9043): 1241.5 ± 1.5 m/s
mass density (308.15 K, x2 = 0.0503): 820.661 ± 0.24 kg/m3
mass density (308.15 K, x2 = 0.1046): 821.913 ± 0.24 kg/m3
mass density (308.15 K, x2 = 0.157): 823.195 ± 0.24 kg/m3
mass density (308.15 K, x2 = 0.2022): 824.389 ± 0.24 kg/m3
mass density (308.15 K, x2 = 0.253): 825.796 ± 0.24 kg/m3
mass density (308.15 K, x2 = 0.3057): 827.357 ± 0.24 kg/m3
mass density (308.15 K, x2 = 0.4094): 830.825 ± 0.24 kg/m3
mass density (308.15 K, x2 = 0.5018): 834.401 ± 0.24 kg/m3
mass density (308.15 K, x2 = 0.6038): 839.036 ± 0.24 kg/m3
mass density (308.15 K, x2 = 0.7003): 844.365 ± 0.24 kg/m3
mass density (308.15 K, x2 = 0.8004): 851.199 ± 0.24 kg/m3
mass density (308.15 K, x2 = 0.9043): 860.184 ± 0.24 kg/m3
speed of sound (313.15 K, x2 = 0.0503): 1322.7 ± 1.5 m/s
speed of sound (313.15 K, x2 = 0.1046): 1318.3 ± 1.5 m/s
speed of sound (313.15 K, x2 = 0.157): 1314.4 ± 1.5 m/s
speed of sound (313.15 K, x2 = 0.2022): 1310.1 ± 1.5 m/s
speed of sound (313.15 K, x2 = 0.253): 1305.7 ± 1.5 m/s
speed of sound (313.15 K, x2 = 0.3057): 1300.1 ± 1.5 m/s
speed of sound (313.15 K, x2 = 0.4094): 1289.6 ± 1.5 m/s
speed of sound (313.15 K, x2 = 0.5018): 1278.9 ± 1.5 m/s
speed of sound (313.15 K, x2 = 0.6038): 1266.3 ± 1.5 m/s
speed of sound (313.15 K, x2 = 0.7003): 1253.2 ± 1.5 m/s
speed of sound (313.15 K, x2 = 0.8004): 1238.4 ± 1.5 m/s
speed of sound (313.15 K, x2 = 0.9043): 1221.6 ± 1.5 m/s
mass density (313.15 K, x2 = 0.0503): 817.16 ± 0.24 kg/m3
mass density (313.15 K, x2 = 0.1046): 818.367 ± 0.24 kg/m3
mass density (313.15 K, x2 = 0.157): 819.603 ± 0.24 kg/m3
mass density (313.15 K, x2 = 0.2022): 820.753 ± 0.24 kg/m3
mass density (313.15 K, x2 = 0.253): 822.116 ± 0.24 kg/m3
mass density (313.15 K, x2 = 0.3057): 823.62 ± 0.24 kg/m3
mass density (313.15 K, x2 = 0.4094): 826.953 ± 0.24 kg/m3
mass density (313.15 K, x2 = 0.5018): 830.393 ± 0.24 kg/m3
mass density (313.15 K, x2 = 0.6038): 834.849 ± 0.24 kg/m3
mass density (313.15 K, x2 = 0.7003): 839.96 ± 0.24 kg/m3
mass density (313.15 K, x2 = 0.8004): 846.506 ± 0.24 kg/m3
mass density (313.15 K, x2 = 0.9043): 855.097 ± 0.24 kg/m3

Reference: the NIST ThermoML archive (doi:10.1016/j.jct.2013.10.025)
